Drawing on a melting point compilation (Tetko et al.; mined from patent text by program, amines drawn as free bases though some values may be those of a salt), this text covers melting point for 90 molecules.

Broadly, the melting point is the temperature, or range, at which the solid turns liquid.

With `CCCS(=O)(=O)Nc1ccc(-c2ccc(C(=O)O)c(=O)[nH]2)cc1`, the melting point is more than 260 °C.
`CN(C(=O)c1coc(C=Cc2ccc(C(F)(F)F)cc2)n1)c1ccc(CCCCn2ccnn2)cc1` had a melting point of 127 to 129 °C.
The figure for `CCC[C@H]1CC[C@H](CCCOc2ccc(C(=O)O[C@H](c3ccccc3)[C@H](OC(=O)c3ccc(OCCC[C@H]4CC[C@H](CCC)CC4)cc3)c3ccccc3)cc2)CC1` is 75 °C; for `C=CCC1(CC=C)CCC(=Cc2ccc(Cl)cc2)C1(O)Cn1cncn1` (stereo not given) it is 128 °C; for `Cc1c(Cl)c(=O)n(-c2cc(C(=O)OC(C)C)c(Cl)cc2F)c(=O)n1C` it is 150 to 153 °C.
As for `CS(=O)(=O)c1ccc(-n2nc(C(F)(F)F)cc2-c2ccc(-c3ccco3)cc2F)cc1F`, the figure is 156 to 160 °C; as for `COc1ccc(S(=O)(=O)n2ccc3ccnc(N(C)C)c32)cc1`, 155 to 158 °C; as for `O=C(O)COCc1nn(-c2ccc(Cl)cc2)c2c1CCC2`, 122 to 123 °C.
Regarding `O=C(c1ccccc1)C(F)c1ccccc1` (stereo not given), the melting point was in the range of 50 to 51 °C.
As for `Cc1cc(-c2cccc3[nH]ccc23)nc(N)n1`, the figure is 242 to 244 °C; as for `O=C(CC1CCOC1=O)c1ccccc1` (stereo not given), 77 to 79 °C.
The figure for `Cc1ccccc1Nc1nc(Cl)nc2ccccc12` is 192 to 194 °C; for `Cn1cc2c(O)cc(-c3ccc(Cl)cc3)nc2n1` it is 302 to 305 °C; for `COC(=O)CCC(=O)c1cccc(O)c1` it is 102 to 103 °C.
As for `CN1CCC(c2nn(CO)c3ccccc23)CC1`, the figure is 128 to 130 °C; as for `COc1ccc2c(c1)C(=O)c1c-2n(CCCBr)c(=O)c2cc([N+](=O)[O-])ccc12`, 282 to 284 °C; as for `C/C(=C\c1ccc(C(=O)O)cc1)c1ccc2c(c1)C(C)(C)C(=O)CC2(C)C`, 260 to 261 °C.
`CC1(C)OCc2cc([C@@H](O)CN[C@H]3CCc4ccc(O)cc4C3)ccc2O1` had a melting point of 156 to 158 °C.
The figure for `CC(=O)c1ccc2ccn(S(=O)(=O)c3ccccc3)c2c1` is 160 to 163 °C; for `O=C(Nc1ccc(Oc2cncc(Cl)c2)nc1)c1ccccc1C(c1ccc(O)cc1)c1ccc(O)cc1` it is 122 to 125 °C; for `Cc1cc([N+](=O)[O-])cc2c1OCC2` it is 80 to 81 °C.
As for `Cc1cc(N(C)c2ccccc2)c2nn(C)cc2n1`, the figure is 252 to 256 °C.
As for `Cc1cc(Cl)ccc1OCc1nn(C)c(=O)o1`, the figure is 108 to 110 °C.
As to `CC1(C)SC2C(N)C(=O)N2C1NC(=O)OCC(Cl)(Cl)Cl` (stereo not given), the melting point was 151 to 155 °C.
The figure for `O=[N+]([O-])c1ccc(Oc2ccc(S(=O)(=O)NC3CCCCC3)cc2)cc1` is 94 °C; for `CCCCOc1c(NC(C)C(C)(C)C)c(=O)c1=O` (stereo not given) it is 90 to 99 °C.
The figure for `NS(=O)(=O)c1ccc(OCCn2ccnc2)cc1` is 148 °C; for `OC[C@H]1CCCN1c1cc(N2CCc3ccccc3C2)c2ccccc2n1` it is 74 to 80 °C.
In turn, `c1ccc2c(c1)N=C(N1CCCCC1)c1cscc1N2` displayed a melting point of 157 to 159 °C.
Consider `Cn1ncc(C(=O)N2CCC2)c1C(=O)Nc1ccn2nc(-c3ccnc(F)c3)nc2c1`, for which the melting point is more than 280 °C.
The figure for `CCC(CC)Nc1cc(C(=O)OC)ccc1N1C(=O)CCC1(CO)CCO` (stereo not given) is 141 to 143 °C; for `CCOC(=O)C1=C(C)NC(C)=C(C(=O)OC)C1c1ccccc1C#N` (stereo not given) it is 178 °C; for `CN(c1ccc(Cl)cc1)S(=O)(=O)c1cccc(C(=O)Nc2ccc(Cl)cc2F)c1` it is 119 to 120 °C.
The figure for `COc1ccc(S(=O)(=O)C2(C(=O)NO)CCN(CCCc3ccccc3)CC2)cc1` is 143 °C; for `Cc1ccc(C)n1-c1ccc(OC(C)(C)C(=O)O)cc1` it is 178 to 180 °C.
Molecule `O=C(c1ccc(-c2ccccc2)nc1)N1Cc2cccn2Cc2ccccc21` displayed a melting point of 171 to 174 °C.
The figure for `COc1ccc(Cl)cc1C(=O)NCCc1ccc(-c2ccco2)c(S(N)(=O)=O)c1` is 195 °C.
As for `CCCCCCCCCCCCn1nnc(C(=NOC)C(=O)Nc2c(OC)cc(OC)cc2OC)n1`, the figure is 84 to 85 °C; as for `O=C(Nc1ccccc1C(=O)NCCc1ncc[nH]1)c1ccc(C(F)(F)F)cc1`, 207 to 215 °C.
Molecule `Cn1c(=O)c(-c2c(Cl)cccc2Cl)cc2cnc(NCc3ccccn3)nc21` returned a melting point of 198 to 201 °C.
As for `NCc1c(Nc2ccccc2)cccc1Oc1ccccc1`, the figure is 113 to 116 °C; as for `CCC1c2c(ncn2CC)CCN1C(=S)NC(C)C` (stereo not given), 195 °C.
As for `CCCC12CCC3C4CCC(=O)C=C4CCC3C1CCC2O` (stereo not given), the figure is 126 to 127 °C; as for `Oc1nc(S)n(-c2ccccc2)n1`, 223 to 226 °C; as for `C[C@H]1[C@H](O)C2(CC2)C(=O)N1c1ccc(C#N)c(C(F)(F)F)c1`, 109 to 110 °C.
As for `N#CC(C#N)CC(=O)c1ccc(Cl)s1`, the figure is 155 to 158 °C.
In the case of `COc1cc(CCl)c(CCl)cc1OCc1ccccc1`, the melting point was 114 to 116 °C.
For `CN1C(=O)C2(COc3cc4c(cc32)OCCO4)c2c(NC(=O)c3ccccc3)cccc21` (stereo not given), the melting point lay within 192 to 194 °C.
Consider `N#Cc1ccc(CN2CCNC2=O)cc1`, for which the melting point is 127 to 133 °C.
As for `O=C(O)Cc1ccc(-c2nc3ccccc3o2)cc1F`, the figure is 213 to 216 °C; as for `CCC1N=C(c2ccccc2Cl)c2cc(CC(=O)OC)sc2NC1=O` (stereo not given), 202 to 204 °C; as for `CC(=O)Sc1cccs1`, 112 to 114 °C.
The figure for `COC(=O)c1nc(CCl)n(-c2ccc(Cl)cc2C(=O)c2ccccc2Cl)n1` is 130 to 132 °C; for `O=C(Nc1cccc(S(=O)(=O)N2CCOCC2)c1)c1cnn2c(C(F)(F)F)cc(-c3ccc(Cl)c(Cl)c3)nc12` it is 239 °C; for `Cc1cc(C(=O)N2Cc3cccn3Cc3ccccc32)ccc1C1=CCCCC1` it is 173 to 175 °C.
As for `COC1CCC(NC(=O)C2CC3c4cccc5c4c(cn5C(C)C)CC3N(C)C2)CC1` (stereo not given), the figure is more than 230 °C.
As for `COc1ccc(O)c(Cl)c1O`, the melting point was 69 to 70 °C.
The figure for `CC(C)(C)OC(=O)N1CCCN(c2ccc(F)cc2)CC1` is 88 to 89 °C.
`CC(C)c1cc(C(C)C)c(OS(=O)(=O)CC(=O)N(Cc2ccccc2)Cc2ccccc2)c(C(C)C)c1` returned a melting point of 107 to 110 °C.
The figure for `O=Cc1ccccc1SSc1ccccc1C=O` is 145 °C; for `CN(C(=O)OC(C)(C)C)c1sc(-c2cncc(F)c2)nc1I` it is 70 to 71 °C; for `O=[N+]([O-])c1cc(S(=O)c2ccc(-c3ccccc3)cc2)ccc1Cl` (stereo not given) it is 98 to 99 °C.
As for `CCCCC(Cn1cncn1)(NC(C)=O)c1ccc(Cl)cc1` (stereo not given), the figure is 178 to 179 °C; as for `CN1CC[C@@H](c2c(O)cc(O)c3c(=O)cc(-c4ccc(N)cc4)oc23)[C@@H]1CO`, 172 to 174 °C; as for `Cc1nccc2[nH]c(=O)c(C(N)=O)cc12`, more than 320 °C.
The figure for `CCCN(CCC)C(=O)n1cnc(S(=O)(=O)CC)n1` is 44 to 45 °C; for `CS(=O)(=O)OCCNC(=O)C(O)C(Oc1ccccc1[N+](=O)[O-])c1ccccc1` (stereo not given) it is 122 to 125 °C; for `COC(=O)c1cc(N)c(NS(C)(=O)=O)c(CO)c1` it is 150 to 155 °C.
Regarding `COCn1c(C)nc2c3c(c(C(=O)N(C)C)cc21)CCC(c1ccccc1)O3` (stereo not given), the melting point is 213 to 215 °C.
As for `c1ccc(-c2ccc(CN3CCN(c4ccccc4)CC3)s2)cc1`, the figure is 88 °C.
The figure for `Cc1cc(-c2nc3cc(NC(=O)c4c(C(=O)N5CCC5)cnn4C)ccn3n2)ccn1` is 210 to 211 °C.
As for `Cc1ccc(-c2ccc(OC3SCC(O)C(O)C3O)cn2)cc1` (stereo not given), the figure is 191 °C; as for `COCC1CN(c2ccc(C3CCC(CCNC(C)=O)CC3)cc2)C(=O)O1` (racemic), 120 to 122 °C.
The molecule `Clc1ccc(COC(CNc2ccc(Cl)c(Cl)c2)Cn2ccnc2)cc1` (stereo not given) had a melting point of 102 to 103 °C.
As for `O=[N+]([O-])c1ccc2c(c1)CCC(COC1CCCCO1)O2` (stereo not given), the figure is 66.4 °C.
The figure for `COc1cccc(C2c3c(C)c(NC(=O)CC(C)(C)C)c(C)c(C)c3OC2(C)C)c1` (stereo not given) is 166 to 167 °C; for `CC(C)COC(=O)CCC1NCC(=O)N1` (stereo not given) it is 50 to 52 °C.
`CN1CCOc2cccc3nc4c(c1c23)CCCC4` had a melting point of 97 to 98 °C.
As for `NC(=O)Cc1cccc2c(=O)cc(C3=CCCCC3)oc12`, the figure is 244 to 245 °C; as for `COc1cc(CON=C(CCC(=O)O)c2ccccc2)ccc1OCc1nc(-c2ccco2)oc1C`, 131 to 132 °C; as for `COc1ccc(C2CSc3ccccc3NC2=O)cc1` (stereo not given), 145 °C.
Turning to `COc1ccc(C2(C#Cc3cccc(NC(=O)C(F)(F)F)c3)CCCC(=O)C2)cc1OC1CCCC1` (stereo not given), the melting point is 63 to 65 °C.
The figure for `Cc1cc2n(c1)CN(CCCO)c1ccccc1-2` is 77 to 78 °C.
The figure for `O=C(Oc1cccc(OC(=O)c2cc(O)c(O)c(O)c2)c1)c1cc(O)c(O)c(O)c1` is 194 to 195 °C.
As for `O=[N+]([O-])c1ccc(-c2cc3c(Nc4ccc(Cl)cc4F)ncnc3o2)cc1`, the figure is 174 to 177 °C; as for `COC(=O)C=Cc1cnc(SC)nc1N`, 192 to 196 °C.
Molecule `ON=c1ccccc2cnccc12` gave a melting point of 164 to 167 °C.
Take `Cc1cc(OCCCCOCc2ccccc2)cc(C)c1N=Nc1ccc([N+](=O)[O-])cc1`: the melting point was 68 to 69.5 °C.
Molecule `Cc1cnc2n(c1=O)C(C)CCC2=NNc1ccccc1` (stereo not given) returned a melting point of 165 to 166 °C.
`O=C(O)c1c(Cc2cc3c(cc2Cl)OCO3)c(-c2ccco2)nn1CC1CCCCC1` showed a melting point of 248 °C.
